Measured values taken from patent US8669292B2, “Therapeutic formulation” (Orion Therapeutics, LLC, priority 2005, dated 2014).
Values after ≈ are worked out from the molar mass of the structure shown. Where two headings read alike, the source gives them in different places. Values belong to the compound of their own block, whether it stands above or below them.

Columns and labels:
Colon 38 Colon Cancer = assay: IC50 assay (concentration-cell number study); assay type: cell-based; conditions: for IC50: 120 h exposure
Experimental: (§2) These cells are grown in 5 ml culture medium (RPMI-1640+15% Bovine Calf serum containing 1% penicillin-streptomycin, and 1% Glutamine) at 37° C. and 5% CO2 at a starting concentration of 5×10^4 cells/T25 flask. On day 3, cells are exposed to different concentrations of the drug. Flasks are incubated for 120 h (5 d) in a 5% CO2 incubator at 37° C. and the cells harvested with trypsin, washed once with Hanks Balanced Salt Solution (HBSS) and re-suspended in HBSS containing 0.08% Trypan Blue. Both viable and dead cells are counted using a hemocytometer. Viable cell numbers are normalized to an untreated control and plotted as a function of drug concentration. The IC50 value is determined using Prism 4.0.
(§3) Cell Lines utilized in IC50 Assays: HCT-116 human colon cancer cells, H125 Lung Cancer, MCF-7, Breast Cancer, MDA-235 Breast Cancer, LNCaP Prostate Cancer, OVAR-5 Ovarian Cancer, U251N Brain Cancer Sarcoma 180, Panc 01Pancreatic Cancer, CCRF-CEM Leukemia, HEP-G2 Liver Cancer, L1210 Leukemia, Colon 38 Colon Cancer.

Sarcoma 180 = assay: IC50 assay (concentration-cell number study); assay type: cell-based; conditions: for IC50: 120 h exposure
Experimental: (§4) Concentration-cell number studies (IC50 assay) were carried out utilizing 12 separate compositions (numbered 1-12 below) against 13 different cancer cell lines (see Table 6). These cells are grown in 5 ml culture medium (RPMI-1640+15% Bovine Calf serum containing 1% penicillin-streptomycin, and 1% Glutamine) at 37° C. and 5% CO2 at a starting concentration of 5×10^4 cells/T25 flask. On day 3, cells are exposed to different concentrations of the drug. Flasks are incubated for 120 h (5 d) in a 5% CO2 incubator at 37° C. and the cells harvested with trypsin, washed once with Hanks Balanced Salt Solution (HBSS) and re-suspended in HBSS containing 0.08% Trypan Blue. Both viable and dead cells are counted using a hemocytometer. Viable cell numbers are normalized to an untreated control and plotted as a function of drug concentration. The IC50 value is determined using Prism 4.0.

[1] = ORAC hydro (Brunswick Test # A101); assay type: biochemical; conditions: for ORAC hydro SCORE: Cantron oral liquid scores converted from TE/L to TE/g
Experimental: (§1) Peroxyl radical scores are measured in the ORAC test (Oxygen Radical Absorption Capacity). Hydroxyl Radicals are tested in the HORAC test (Hydroxyl Radical Absorption Capacity). Peroxynitrite Radicals are tested in the NORAC test (Peroxynitrite Radical Absorption Capacity). Superoxide Radicals are measured in the SOD test (Superoxide Radical Absorption Capacity). The ORAC test measures the antioxidant activity against peroxyl radicals by determining how many peroxyl free radicals can be absorbed by a given antioxidant as compared to the vitamin E analog-Trolox. The result is expressed as micromoles of Trolox equivalent per liter (TE/L) for liquid formulations and Trolox equivalent per gram (TE/g) for dry powders. Brunswick tested the Applicant's compounds for antioxidant activity against both hydrophilic and lipophilic peroxyl radicals as expressed in the ORAC total (see table 7).

[2] = system: HCT-116 human colon cancer cells; assay: Clonogenic dose response; assay type: cell-based
Experimental: Clonogenic survival of the cells was measured by a standard tissue culture procedure.
Asimicin was prepared in ethanol. Clonogenic survival of the cells was measured by a standard tissue culture procedure.

OVAR-5 Ovarian Cancer = assay: IC50 assay (concentration-cell number study); assay type: cell-based; conditions: for IC50: 120 h exposure
Experimental: as §4

CCRF-CEM Leukemia = assay: IC50 assay (concentration-cell number study); assay type: cell-based; conditions: for IC50: 120 h exposure
Experimental: as §4

[3] = system: 13 different cancer cell lines; assay: IC50 assays, average or range over all cell lines; assay type: cell-based
Experimental: as §2, §3

H125 Lung Cancer = assay: IC50 assay (concentration-cell number study); assay type: cell-based
Experimental: as §2, §3

HEP-G2 Liver Cancer = assay: IC50 assay (concentration-cell number study); assay type: cell-based
Experimental: as §4

[4] = HORAC (Brunswick Test # A104); assay type: biochemical; conditions: for HORAC SCORE: Cantron oral liquid scores converted from CAE/L to CAE/g
Experimental: Peroxyl radical scores are measured in the ORAC test (Oxygen Radical Absorption Capacity). Hydroxyl Radicals are tested in the HORAC test (Hydroxyl Radical Absorption Capacity). Peroxynitrite Radicals are tested in the NORAC test (Peroxynitrite Radical Absorption Capacity). Superoxide Radicals are measured in the SOD test (Superoxide Radical Absorption Capacity). […] The result is expressed as micromoles of caffeic acid equivalent per liter (CAE/L) for liquid formulations and caffeic acid equivalent per gram (CAE/g) for dry powders.

[5] = system: Panc 01 Pancreatic Cancer; assay: IC50 assay (concentration-cell number study); assay type: cell-based; conditions: for IC50: 120 h exposure
Experimental: as §4

[6] = ORAC total (Brunswick Test # A103); assay type: biochemical; conditions: for TOTAL ORAC SCORE: Cantron oral liquid scores converted from TE/L to TE/g
Experimental: as §1

MDA-235 Breast Cancer = assay: IC50 assay (concentration-cell number study); assay type: cell-based; conditions: for IC50: 120 h exposure
Experimental: as §4

U251N Brain Cancer = assay: IC50 assay (concentration-cell number study); assay type: cell-based; conditions: for IC50: 120 h exposure
Experimental: as §4

[7] = system: HCT-116 human colon cancer cells; assay: IC50 assay (concentration-cell number study); assay type: cell-based
Experimental: Concentration-cell number studies (IC50 assay) were carried out utilizing 12 separate compositions (numbered 1-12 below) against 13 different cancer cell lines (see Table 6). […] On day 3, cells are exposed to different concentrations of the drug. Flasks are incubated for 120 h (5 d) in a 5% CO2 incubator at 37° C. and the cells harvested with trypsin, washed once with Hanks Balanced Salt Solution (HBSS) and re-suspended in HBSS containing 0.08% Trypan Blue. Both viable and dead cells are counted using a hemocytometer. Viable cell numbers are normalized to an untreated control and plotted as a function of drug concentration. The IC50 value is determined using Prism 4.0.

MCF-7 Breast Cancer = assay: IC50 assay (concentration-cell number study); assay type: cell-based
Experimental: as §4

[8] = in vivo; cited from earlier work
[9] = ORAC lipo (Brunswick Test # A102); assay type: biochemical; conditions: for ORAC lipo SCORE: Cantron oral liquid scores converted from TE/L to TE/g
Experimental: as §1

[10] = NORAC (Brunswick Test # A105); assay type: biochemical; conditions: for NORAC SCORE: Cantron oral liquid scores converted from TE/L to TE/g
Experimental: Peroxyl radical scores are measured in the ORAC test (Oxygen Radical Absorption Capacity). Hydroxyl Radicals are tested in the HORAC test (Hydroxyl Radical Absorption Capacity). Peroxynitrite Radicals are tested in the NORAC test (Peroxynitrite Radical Absorption Capacity). Superoxide Radicals are measured in the SOD test (Superoxide Radical Absorption Capacity). Applicant's compounds and compositions were tested by the NORAC test (Brunswick test # A 105), which measures the activity of a given antioxidant against peroxynitrite radicals. NORAC tests were based on the method of Chung H. et al (2001) Journal Agricultural of Food Chemistry, 49: 3614-3621. Scores are expressed in micromoles of trolox equivalent per liter (TE/L) for liquid formulations and Trolox equivalent per gram (TE/g) for dry powders.

[11] = SORAC (Brunswick Test # A106); assay type: biochemical; conditions: for SOD SCORE: Cantron oral liquid scores converted from unitsSODeq/L to unitsSODeq/g
Experimental: Peroxyl radical scores are measured in the ORAC test (Oxygen Radical Absorption Capacity). Hydroxyl Radicals are tested in the HORAC test (Hydroxyl Radical Absorption Capacity). Peroxynitrite Radicals are tested in the NORAC test (Peroxynitrite Radical Absorption Capacity). Superoxide Radicals are measured in the SOD test (Superoxide Radical Absorption Capacity). Applicant's compounds and compositions were tested by the SORAC test (Brunswick test #106), which measures the activity of a given antioxidant against Superoxide radicals. The tests were conducted based on the method of Zhao et al (1999) Journal of Agricultural and Food Chemistry, (1999), 47: 2537-2543. The calibration standard was SOD and was expressed as a unit SOD equivalent per liter (unitsSODeq/L) for liquid formulations and unit SOD equivalent per gram (unitsSODeq/g) for dry powders.

L1210 Leukemia = assay: IC50 assay (concentration-cell number study); assay type: cell-based; conditions: for IC50: 120 h exposure
Experimental: as §4

LNCaP Prostate Cancer = assay: IC50 assay (concentration-cell number study); assay type: cell-based; conditions: for IC50: 120 h exposure
Experimental: as §4

[12] = Homo sapiens, HCT-116, 120 h, HCT-116, 120 h exposure, read-out: IC50

Compound: Oc1ccccc1O [Composition 2, Catechol]
IC50 times lower than Cantron (times more efficacious than Cantron) (Colon 38 Colon Cancer): 11.36 times lower than | IC50 (Colon 38 Colon Cancer; read-out: IC50): 2.2 µg/mL (≈ 20 µM) | IC50 times lower than Cantron (times more efficacious than Cantron) (Sarcoma 180): 12.11 times lower than | IC50 (Sarcoma 180; Mus musculus, read-out: IC50): 1.9 µg/mL (≈ 17.3 µM) | ORAC hydro SCORE [1]: 48,479 micromoles TE/g | more effective than the improved Cantron ASV ([1]; Peroxyl-hydro score ratio): is still 507% more effective than | clonogenic survival ([2]; 24 h exposure, 10 micrograms/ml): 0.1 | effect on clonogenic survival ([2]; 24 h exposure, concentrations up to 1 microgram/ml): no effect | effect on the survival of the tumor cells ([2]; concentration of up to 10 micrograms/ml, exposure time not given): no effect | concentration with cell survival at the 0.1 level ([2]; extended exposure 168 h): 200 picograms/ml | IC50 times lower than Cantron (times more efficacious than Cantron) (OVAR-5 Ovarian Cancer): 3.69 times lower than | IC50 (OVAR-5 Ovarian Cancer; read-out: IC50): 3.2 µg/mL (≈ 29.1 µM) | IC50 times lower than Cantron (times more efficacious than Cantron) (CCRF-CEM Leukemia): 6.19 times lower than | IC50 (CCRF-CEM Leukemia; Homo sapiens, read-out: IC50): 2.1 µg/mL (≈ 19.1 µM) | IC50 ([3]; average of 13 cell lines): 2.3 µg/mL (≈ 20.9 µM) | times more efficacious than Cantron ([3]; average over the cell lines tested): 10.35 times | IC50 times lower than Cantron (times more efficacious than Cantron) (H125 Lung Cancer): 14.29 times lower than | IC50 (H125 Lung Cancer; Homo sapiens, NCI-H125, 120 h exposure, read-out: IC50): 2.1 µg/mL (≈ 19.1 µM) | IC50 times lower than Cantron (times more efficacious than Cantron) (HEP-G2 Liver Cancer): 4.61 times lower than | IC50 (HEP-G2 Liver Cancer; Homo sapiens, HepG2, 120 h exposure, read-out: IC50): 2.6 µg/mL (≈ 23.6 µM) | HORAC SCORE [4]: 5,572 micromoles CAE/g | more effective than Cantron NM ([4]; Hydroxyl score ratio): 2,079% more effective than | IC50 times lower than Cantron (times more efficacious than Cantron) [5]: 14.71 times lower than | IC50 ([5]; read-out: IC50): 1.7 µg/mL (≈ 15.4 µM) | TOTAL ORAC SCORE [6]: 73,161 micromoles TE/g | more effective than Cantron NM ([6]; Peroxyl-total score ratio): The Catechol composition is 1702% | IC50 times lower than Cantron (times more efficacious than Cantron) (MDA-235 Breast Cancer): 9.33 times lower than | IC50 (MDA-235 Breast Cancer; read-out: IC50): 3 µg/mL (≈ 27.2 µM) | IC50 times lower than Cantron (times more efficacious than Cantron) (U251N Brain Cancer): 10.45 times lower than | IC50 (U251N Brain Cancer; read-out: IC50): 2.2 µg/mL (≈ 20 µM) | IC50 times lower than Cantron (times more efficacious than Cantron) ([7]; HCT-116): 7.04 times lower than | calculated cytotoxicity value of catechol ([7]; HCT-116, Cantron score 19.7 multiplied by 12.7% catechol by weight): 2.5019 µg/mL | IC50 [7, 12]: 2.8 µg/mL (≈ 25.4 µM) | IC50 ([7]; Homo sapiens, HCT-116, read-out: calculated cytotoxicity value of catechol, HCT-116, Cantron score 19.7 multiplied by 12.7% catechol by weight): 2.5 µg/mL (≈ 22.7 µM) | IC50 times lower than Cantron (times more efficacious than Cantron) (MCF-7 Breast Cancer): 11.36 times lower than | IC50 (MCF-7 Breast Cancer; 120 h exposure): to 2.2 μg/ml). It is | IC50 (MCF-7 Breast Cancer; Homo sapiens, MCF7, 120 h exposure, read-out: IC50): 2.2 µg/mL (≈ 20 µM) | known side effects in animal tests [8]: stomach irritation and hyperplasia | ORAC lipo SCORE [9]: 24,682 micromoles TE/g | more effective than the improved Cantron ASV ([9]; Peroxyl-lipo score ratio): is still 4086.4% more effective | NORAC SCORE [10]: 2,593 micromoles TE/g | more effective than the improved Cantron ASV ([10]; Peroxynitrite score ratio): is still 409.63% more effective | SOD SCORE [11]: 159,000 unitsSODeq/g | more effective than the improved Cantron ASV ([11]; Superoxide score ratio): is still 441.66% more effective | IC50 times lower than Cantron (times more efficacious than Cantron) (L1210 Leukemia): 10.52 times lower than | IC50 (L1210 Leukemia; Mus musculus, read-out: IC50): 1.9 µg/mL (≈ 17.3 µM) | IC50 times lower than Cantron (times more efficacious than Cantron) (LNCaP Prostate Cancer): 18.82 times lower than | IC50 (LNCaP Prostate Cancer; Homo sapiens, read-out: IC50): 1.7 µg/mL (≈ 15.4 µM)

IC50 [7, 12]: > 100 µg/mL
Compound: O=C(O)CCCCC1CCSS1 (stereo not drawn) [Alpha-lipoic acid, reference compound]

IC50 [7, 12]: > 100 µg/mL
Compound: O=C1O[C@H]([C@@H](O)CO)C(O)=C1O [Vitamin C, reference compound]

Compound: Acetogenin [Composition 3]
IC50 (Colon 38 Colon Cancer): 0.00019 µg/mL | IC50 (Sarcoma 180): 0.0012 µg/mL | IC50 (OVAR-5 Ovarian Cancer): 0.0018 µg/mL | IC50 (CCRF-CEM Leukemia): 0.0052 µg/mL | IC50 AVG. ([3]; average of 13 cell lines): 0.0028 µg/mL | IC50 (H125 Lung Cancer; 120 h exposure): 0.0014 µg/mL | IC50 (HEP-G2 Liver Cancer; 120 h exposure): 0.0022 µg/mL | IC50 [5]: 0.00041 µg/mL | IC50 (MDA-235 Breast Cancer): 0.0013 µg/mL | IC50 (U251N Brain Cancer): 0.0012 µg/mL | IC50 ([7]; HCT-116, 120 h exposure): 0.002 µg/mL | IC50 ([7]; HCT-116, 120 h exposure, listed as 3): 0.002 µg/mL | IC50 (MCF-7 Breast Cancer; 120 h exposure): 0.0013 µg/mL | IC50 (L1210 Leukemia): 0.013 µg/mL | IC50 (LNCaP Prostate Cancer): 0.005 µg/mL

IC50 [7, 12]: 0.15 µg/mL (≈ 1.15 µM)
Compound: O=c1[nH]cc(F)c(=O)[nH]1 [5-Fluorouracil, reference compound]

IC50 (Colon 38 Colon Cancer): 19 µg/mL (≈ 110 µM) | IC50 (Sarcoma 180): 51 µg/mL (≈ 296 µM) | IC50 (OVAR-5 Ovarian Cancer): 28 µg/mL (≈ 163 µM) | IC50 (CCRF-CEM Leukemia): 7.0 µg/mL (≈ 40.7 µM) | IC50 AVG. ([3]; average of 13 cell lines): 25 µg/mL (≈ 145 µM) | IC50 (H125 Lung Cancer; 120 h exposure): 53 µg/mL (≈ 308 µM) | IC50 (HEP-G2 Liver Cancer; 120 h exposure): 8.5 µg/mL (≈ 49.4 µM) | IC50 [5]: 24 µg/mL (≈ 139 µM) | IC50 (MDA-235 Breast Cancer): 5.8 µg/mL (≈ 33.7 µM) | IC50 (U251N Brain Cancer): 8.0 µg/mL (≈ 46.5 µM) | IC50 ([7]; HCT-116, 120 h exposure): 17.0 µg/mL (≈ 98.8 µM) | IC50 ([7]; HCT-116, 120 h exposure, listed as 4): 17 µg/mL (≈ 98.8 µM) | IC50 (MCF-7 Breast Cancer; 120 h exposure): 5.9 µg/mL (≈ 34.3 µM) | IC50 (L1210 Leukemia): 49 µg/mL (≈ 285 µM) | IC50 (LNCaP Prostate Cancer): 54 µg/mL (≈ 314 µM)
Compound: O=C1C(O)=C(O)C(=O)C(O)=C1O [Composition 4, tetrahydroxy-1,4-quinone]
ORAC hydro SCORE [1]: 1,507 micromoles TE/g | HORAC SCORE [4]: 129 micromoles CAE/g | TOTAL ORAC SCORE [6]: 1,508 micromoles TE/g | ORAC lipo SCORE [9]: 1 micromoles TE/g | NORAC SCORE [10]: 438 micromoles TE/g | SOD SCORE [11]: 145,000 unitsSODeq/g
